In paper PMC12490239, “Combining BET inhibition with SMAC mimetics restricts tumor growth and triggers immune surveillance in preclinical cancer models” (Cell Reports Medicine, 2025):

Key:
Experiment in all cases: cells
Set-up in all cases: CellTiter-Glo 2.0 luminescence proliferation/viability assay, single agents, human tumour cell line panel
SNU-216 = details: SNU-216, 96 h; single agent; read-out: IC50 SMACm
In short: (§1)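 Human tumour cell lines were seeded into assay plates and held at 37°C with 5% CO2 for twenty-four hours, then exposed in triplicate to rising concentrations of the SMAC mimetic, from 4.5 nM to 10 μM, with DMSO as control. After 96 h, viability was read as CellTiter-Glo2.0 luminescence to derive single-agent IC50 values.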

LIM2550 = details: 96 h; single agent; read-out: IC50 SMACm
In short: as §1

C70 = details: 96 h; single agent; read-out: IC50 SMACm
In short: as §1

KP-2 = details: 96 h; single agent; read-out: IC50 SMACm
In short: as §1

KP-3 = details: 96 h; single agent; read-out: IC50 SMACm
In short: as §1

SK-LU-1 = details: Homo sapiens, SK-LU-1, 96 h; single agent; read-out: IC50 SMACm
In short: as §1

NCI-H1838 = details: Homo sapiens, NCI-H1838, 96 h; single agent; read-out: IC50 SMACm
In short: as §1

NUGC-3 = details: Homo sapiens, NUGC-3, 96 h; single agent; read-out: IC50 SMACm
In short: as §1

NCI-H1792 = details: Homo sapiens, NCI-H1792, 96 h; single agent; read-out: IC50 SMACm
In short: as §1

Panc 04.03 = details: Homo sapiens, Panc 04.03, 96 h; single agent; read-out: IC50 SMACm
In short: as §1

HARA = details: 96 h; single agent; read-out: IC50 SMACm
In short: as §1

Gp2D = details: GP2d, 96 h; single agent; read-out: IC50 SMACm
In short: as §1

LS-411N = details: Homo sapiens, LS-411N, 96 h; single agent; read-out: IC50 SMACm
In short: as §1

NCI-H596 = details: Homo sapiens, NCI-H596, 96 h; single agent; read-out: IC50 SMACm
In short: as §1

NCI-H292 = details: Homo sapiens, NCI-H292, 96 h; single agent; read-out: IC50 SMACm
In short: as §1

IC50 (SNU-216): 4.32 µM
IC50 (SK-LU-1): 0.495 µM
IC50 (NCI-H1838): 4.25 µM
IC50 (NCI-H1792): 4.79 µM
IC50 (Panc 04.03): 4.68 µM
IC50 (NCI-H596): 4.41 µM
IC50 (NCI-H292): 6.03 µM
SMILES: CN[C@@H](C)C(=O)Nc1ccc(-c2c(-c3cccnc3OC)nc3cc(C)ccn23)c(C#Cc2ccc3c(C)nccc3c2)n1 [SMACm, BI 891065]
IC50 (LIM2550): 2.08 µM
IC50 (C70): 3.31 µM
IC50 (KP-2): 4.62 µM
IC50 (KP-3): 4.62 µM
IC50 (NUGC-3): 4.59 µM
IC50 (HARA): 3.97 µM
IC50 (Gp2D): 3.62 µM
IC50 (LS-411N): 4.43 µM
